This is an account of results in patent US20070179125A1, “Aminopyrimidines useful as kinase inhibitors” (priority 2005, published 2007).

Holding throughout (assay type): biochemical
For test [1], the target named is Aurora-1 (Aurora B) (Homo sapiens, UniProt Q96GD4). The test is described as follows: Aurora-1 (Aurora B) inhibition assay (radiometric). As to conditions: 800 μM ATP, Kemptide, 25° C. The procedure:
An assay buffer solution was prepared which consisted of 25 mM HEPES (pH 7.5), 10 mM MgCl2, 0.1% BSA and 10% glycerol. A 22 nM Aurora-B solution, also containing 1.7 mM DTT and 1.5 mM Kemptide (LRRASLG), was prepared in assay buffer. To 22 μL of the Aurora-B solution, in a 96-well plate, was added 2 μl of a compound stock solution in DMSO and the mixture allowed to equilibrate for 10 minutes at 25° C. The enzyme reaction was initiated by the addition of 16 μl stock [γ-^33P]-ATP solution (˜20 nCi/μL) prepared in assay buffer, to a final assay concentration of 800 μM. The reaction was stopped after 3 hours by the addition of 16 μL 500 mM phosphoric acid and the levels of ^33P incorporation into the peptide substrate were determined by the following method.
A phosphocellulose 96-well plate (Millipore, Cat no. MAPHNOB50) was pre-treated with 100 μL of a 100 mM phosphoric acid prior to the addition of the enzyme reaction mixture (40 μL). […] Levels of non-enzyme catalyzed background radioactivity were determined by adding 16 μL of the 500 mM phosphoric acid to control wells, containing all assay components (which acts to denature the enzyme), prior to the addition of the [γ-^33P]-ATP solution. Levels of enzyme catalyzed ^33P incorporation were calculated by subtracting mean background counts from those measured at each inhibitor concentration. […]

The target of test [2] is T1, JAK3 (Homo sapiens, UniProt P52333).
T1 sequence (P52333 1-1124): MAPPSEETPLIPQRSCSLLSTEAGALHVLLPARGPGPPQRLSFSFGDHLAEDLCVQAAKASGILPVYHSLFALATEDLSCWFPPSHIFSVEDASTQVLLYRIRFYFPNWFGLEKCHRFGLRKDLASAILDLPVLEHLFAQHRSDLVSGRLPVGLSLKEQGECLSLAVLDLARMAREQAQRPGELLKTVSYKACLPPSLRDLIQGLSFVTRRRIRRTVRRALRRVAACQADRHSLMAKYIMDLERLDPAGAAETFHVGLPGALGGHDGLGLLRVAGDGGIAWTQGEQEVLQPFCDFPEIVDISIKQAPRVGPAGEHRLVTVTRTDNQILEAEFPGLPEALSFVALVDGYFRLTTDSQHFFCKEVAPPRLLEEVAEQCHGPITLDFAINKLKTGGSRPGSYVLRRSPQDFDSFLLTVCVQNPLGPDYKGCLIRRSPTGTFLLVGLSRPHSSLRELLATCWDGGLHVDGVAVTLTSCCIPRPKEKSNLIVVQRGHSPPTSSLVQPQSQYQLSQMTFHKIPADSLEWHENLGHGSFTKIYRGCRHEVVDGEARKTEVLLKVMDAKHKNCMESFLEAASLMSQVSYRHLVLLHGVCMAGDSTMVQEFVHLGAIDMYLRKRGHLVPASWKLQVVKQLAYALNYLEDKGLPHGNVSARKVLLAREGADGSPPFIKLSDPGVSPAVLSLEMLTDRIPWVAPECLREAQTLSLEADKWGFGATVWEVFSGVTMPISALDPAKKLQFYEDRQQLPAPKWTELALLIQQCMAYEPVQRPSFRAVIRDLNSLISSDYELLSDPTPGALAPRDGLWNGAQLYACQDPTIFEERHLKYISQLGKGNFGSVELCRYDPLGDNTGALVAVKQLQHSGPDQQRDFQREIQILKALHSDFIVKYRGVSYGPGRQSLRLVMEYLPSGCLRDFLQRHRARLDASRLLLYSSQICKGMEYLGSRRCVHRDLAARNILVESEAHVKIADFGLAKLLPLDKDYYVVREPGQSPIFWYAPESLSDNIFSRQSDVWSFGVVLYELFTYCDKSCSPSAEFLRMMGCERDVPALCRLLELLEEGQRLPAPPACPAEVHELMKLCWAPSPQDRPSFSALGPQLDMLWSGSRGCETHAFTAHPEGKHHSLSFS
Kind of test: JAK3 inhibition assay. The following applies: 5 μM ATP, 1 μM poly(Glu)4Tyr, 1 nM JAK3, 25° C. The procedure:
(§1) Compounds were screened for their ability to inhibit JAK using the assay shown below. Reactions were carried out in a kinase buffer containing 100 mM HEPES (pH 7.4), 1 mM DTT, 10 mM MgCl2, 25 mM NaCl, and 0.01% BSA.
(§2) Substrate concentrations in the assay were 5 μM ATP (200 uCi/μmole ATP) and 1 μM poly(Glu)4Tyr. Reactions were carried out at 25° C. and 1 nM JAK3.
(§3) To each well of a 96 well polycarbonate plate was added 1.5 μl of a candidate JAK3 inhibitor along with 50 μl of kinase buffer containing 2 μM poly(Glu)4Tyr and 10 μM ATP. This was then mixed and 50 μl of kinase buffer containing 2 nM JAK3 enzyme was added to start the reaction. After 20 minutes at room temperature (25 C), the reaction was stopped with 50 μl of 20% trichloroacetic acid (TCA) that also contained 0.4 mM ATP. The entire contents of each well were then transferred to a 96 well glass fiber filter plate using a TomTek Cell Harvester. After washing, 60 μl of scintillation fluid was added and ^33P incorporation detected on a Perkin Elmer TopCount.

Test [3] deals with T2, Aurora-2 (Aurora A) (Homo sapiens, UniProt O14965).
T2 sequence (O14965 1-403): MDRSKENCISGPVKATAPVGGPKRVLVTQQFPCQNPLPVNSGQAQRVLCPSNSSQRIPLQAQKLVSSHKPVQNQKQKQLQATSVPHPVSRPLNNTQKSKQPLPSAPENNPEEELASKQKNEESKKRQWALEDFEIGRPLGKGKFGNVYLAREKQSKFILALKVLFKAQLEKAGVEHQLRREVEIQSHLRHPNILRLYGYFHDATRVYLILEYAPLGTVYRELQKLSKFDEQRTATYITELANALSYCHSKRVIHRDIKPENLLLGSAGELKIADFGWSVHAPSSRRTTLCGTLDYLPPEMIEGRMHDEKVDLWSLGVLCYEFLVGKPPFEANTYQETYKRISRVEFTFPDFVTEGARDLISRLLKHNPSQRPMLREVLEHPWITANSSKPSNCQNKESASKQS
The test is described as follows: Aurora-2 (Aurora A) inhibition assay, coupled enzyme. As to conditions: 400 μM ATP, 570 μM Kemptide, 40 nM Aurora-2, 30° C. The procedure:
Compounds were screened for their ability to inhibit Aurora-2 using a standard coupled enzyme assay (Fox et al., Protein Sci., (1998) 7, 2249). Assays were carried out in a mixture of 100 mM Hepes (pH7.5), 10 mM MgCl2, 1 mM DTT, 25 mM NaCl, 2.5 mM phosphoenolpyruvate, 300 μM NADH, 30 μg/ml pyruvate kinase and 10 μg/ml lactate dehydrogenase. Final substrate concentrations in the assay are 400 μM ATP (Sigma Chemicals) and 570 μM peptide (Kemptide, American Peptide, Sunnyvale, Calif.). Assays were carried out at 30° C. and in the presence of 40 nM Aurora-2.
An assay stock buffer solution was prepared containing all of the reagents listed above, with the exception of Aurora-2 and the test compound of interest. 55 μl of the stock solution was placed in a 96 well plate followed by addition of 2 μl of DMSO stock containing serial dilutions of the test compound (typically starting from a final concentration of 7.5 μM). The plate was preincubated for 10 minutes at 30° C. and the reaction initiated by addition of 10 μl of Aurora-2. Initial reaction rates were determined with a Molecular Devices SpectraMax Plus plate reader over a 10 minute time course. IC50 and Ki data were calculated from non-linear regression analysis using the Prism software package (GraphPad Prism version 3.0cx for Macintosh, GraphPad Software, San Diego Calif., USA).

The target in test [4] is T3, human Itk kinase (Homo sapiens, UniProt Q08881).
T3 sequence (Q08881 1-620): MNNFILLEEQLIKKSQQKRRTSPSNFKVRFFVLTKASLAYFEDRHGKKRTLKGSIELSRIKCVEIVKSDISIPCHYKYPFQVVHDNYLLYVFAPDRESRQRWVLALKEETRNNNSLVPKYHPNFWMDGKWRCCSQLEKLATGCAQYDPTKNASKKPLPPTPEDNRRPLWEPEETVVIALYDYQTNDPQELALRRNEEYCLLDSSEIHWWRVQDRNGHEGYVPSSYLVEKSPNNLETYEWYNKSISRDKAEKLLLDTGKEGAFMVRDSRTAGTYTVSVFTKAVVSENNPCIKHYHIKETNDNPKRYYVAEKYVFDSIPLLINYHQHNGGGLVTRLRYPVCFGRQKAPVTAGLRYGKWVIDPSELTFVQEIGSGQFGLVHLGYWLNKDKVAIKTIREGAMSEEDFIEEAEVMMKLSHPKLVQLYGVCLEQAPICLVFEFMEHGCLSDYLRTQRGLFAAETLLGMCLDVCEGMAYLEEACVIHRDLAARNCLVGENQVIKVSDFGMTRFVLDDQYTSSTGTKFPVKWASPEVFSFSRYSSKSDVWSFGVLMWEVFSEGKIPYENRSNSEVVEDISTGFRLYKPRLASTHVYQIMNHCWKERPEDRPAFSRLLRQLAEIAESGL
The test is described as follows: Itk inhibition assay, radioactivity-based. As to conditions: Ki(app); 7.5 μM ATP, 3 μM SAM68 peptide, 50 nM Itk, 25° C. The procedure: The compounds of the present invention were evaluated as inhibitors of human Itk kinase using a radioactivity-based assay.
Assays were carried out in a mixture of 20 mM MOPS (pH 7.0), 10 mM MgCl2, 0.1% BSA and 1 mM DTT. Final substrate concentrations in the assay were 7.5 μM [γ-^33P]ATP (400 μCi ^33P ATP/μmol ATP, Amersham Pharmacia Biotech/Sigma Chemicals) and 3 μM peptide (SAM68 protein Δ332-443). Assays were carried out at 25° C. in the presence of 50 nM Itk. An assay stock buffer solution was prepared containing all of the reagents listed above, with the exception of ATP and the test compound of interest. 50 μL of the stock solution was placed in a 96 well plate followed by addition of 2 μL of DMSO stock containing serial dilutions of the test compound (typically starting from a final concentration of 50 μM with 2-fold serial dilutions) in duplicate (final DMSO concentration 2%). The plate was pre-incubated for 10 minutes at 25° C. and the reaction initiated by addition of 50 μL [γ-^33P]ATP (final concentration 7.5 μM).
The reaction was stopped after 10 minutes by the addition of 100 μL 0.2M phosphoric acid+0.01% TWEEN 20. […]
Ki(app) data were calculated from non-linear regression analysis of the initial rate data using the Prism software package (GraphPad Prism version 3.0cx for Macintosh, GraphPad Software, San Diego Calif., USA).

In test [5] the target is JAK-2 enzyme (Homo sapiens, UniProt O60674). The test is described as follows: JAK2 inhibition assay. The following applies: 12 μM ATP, 15 μM poly(Glu)4Tyr. The procedure:
as §1, §2, §3
The assays are as described above in Example 3 except that JAK-2 enzyme is used, the final poly(Glu)4Tyr concentration is 15 μM, and final ATP concentration is 12 μM.

Chain of Aurora-1 (Aurora B) (Q96GD4 whole entry, species assumed): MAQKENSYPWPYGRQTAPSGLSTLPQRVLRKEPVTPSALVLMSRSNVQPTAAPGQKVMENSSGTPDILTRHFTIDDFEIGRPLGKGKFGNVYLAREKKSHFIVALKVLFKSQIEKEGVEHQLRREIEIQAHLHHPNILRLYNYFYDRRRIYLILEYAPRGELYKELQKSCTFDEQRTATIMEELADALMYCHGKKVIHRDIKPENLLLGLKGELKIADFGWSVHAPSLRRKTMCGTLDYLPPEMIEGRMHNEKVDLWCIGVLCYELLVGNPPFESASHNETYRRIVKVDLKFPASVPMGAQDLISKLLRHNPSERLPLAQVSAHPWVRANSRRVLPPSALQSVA
Chain of JAK-2 enzyme (O60674 whole entry, species assumed): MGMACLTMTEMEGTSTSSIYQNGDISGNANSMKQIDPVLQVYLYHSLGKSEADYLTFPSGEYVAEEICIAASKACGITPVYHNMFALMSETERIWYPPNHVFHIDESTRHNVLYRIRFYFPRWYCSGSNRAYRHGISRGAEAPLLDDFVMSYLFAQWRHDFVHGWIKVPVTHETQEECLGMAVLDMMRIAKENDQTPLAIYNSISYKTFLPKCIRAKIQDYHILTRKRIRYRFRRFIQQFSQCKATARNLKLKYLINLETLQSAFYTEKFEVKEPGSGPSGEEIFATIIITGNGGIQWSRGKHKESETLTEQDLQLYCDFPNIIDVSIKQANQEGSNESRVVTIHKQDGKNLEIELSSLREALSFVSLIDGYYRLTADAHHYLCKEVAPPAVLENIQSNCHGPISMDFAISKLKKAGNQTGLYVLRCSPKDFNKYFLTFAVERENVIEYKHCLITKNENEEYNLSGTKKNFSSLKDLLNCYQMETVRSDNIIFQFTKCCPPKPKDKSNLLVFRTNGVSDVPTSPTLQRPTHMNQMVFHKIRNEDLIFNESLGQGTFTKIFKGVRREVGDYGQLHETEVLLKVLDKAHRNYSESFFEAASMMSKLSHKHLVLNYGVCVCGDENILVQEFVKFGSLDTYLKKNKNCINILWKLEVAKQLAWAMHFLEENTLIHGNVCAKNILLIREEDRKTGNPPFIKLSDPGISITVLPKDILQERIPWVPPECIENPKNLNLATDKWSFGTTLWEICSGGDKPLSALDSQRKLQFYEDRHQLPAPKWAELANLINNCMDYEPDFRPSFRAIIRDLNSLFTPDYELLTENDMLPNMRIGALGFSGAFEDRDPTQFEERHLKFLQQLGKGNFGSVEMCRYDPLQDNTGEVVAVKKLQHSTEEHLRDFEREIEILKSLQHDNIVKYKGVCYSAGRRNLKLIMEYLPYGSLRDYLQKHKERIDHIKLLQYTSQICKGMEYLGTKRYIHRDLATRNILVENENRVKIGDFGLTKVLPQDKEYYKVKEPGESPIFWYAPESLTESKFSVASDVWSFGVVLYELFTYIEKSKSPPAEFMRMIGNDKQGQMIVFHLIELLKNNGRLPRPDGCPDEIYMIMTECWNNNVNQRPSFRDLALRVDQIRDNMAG

For `Cc1cc(Nc2cc(N3CC(F)(C4CC4)C3)nc(O[C@H]3CCN(C(=O)c4cc(Cl)ccc4F)C3)n2)[nH]n1` [Compound I-3, (S)-(5-chloro-2-fluorophenyl)(3-(4-(3-cyclopropyl-3-fluoroazetidin-1-yl)-6-(3-methyl-1H-pyrazol-5-ylamino)pyrimidin-2-yloxy)pyrrolidin-1-yl)methanone], the Ki was less than 25 nM in test [1] and less than 250 nM in test [2].

Turning to `Cc1cc(Nc2cc(N3CCC3)nc(O[C@H]3CCN(C(=O)OC(C)(C)C)C3)n2)[nH]n1` [Compound I-1, (S)-3-[4-Azetidin-1-yl-6-(5-methyl-2H-pyrazol-3-ylamino)-pyrimidin-2-yloxy]-pyrrolidine-1-carboxylic acid tert-butyl ester], the Ki was less than 50 nM in test [3], less than 1000 nM in test [4] and less than 250 nM in test [5].
